Results on 5 molecules are retold here after US9469616B2, “Cyclic compounds and methods of making and using the same” (Cellceutix Corporation, priority 2011, dated 2016).

Converted amounts (≈) assume the structure as drawn. “And” between values parts separate entries of the source, which are not always exact repeats. Identical values can stand only once.

One data set has as its system HepG2. Nature of the data set: Cytotoxicity colorimetric assay. The note with it: Homo sapiens, HepG2, 1 h, one hour incubation in serum-free media. The format is cell-based. On the procedure:
(§1) Cytotoxicity of the compounds are evaluated in a colorimetric assay using a transformed human liver cell line (HepG2, HB-8065) and an embryonic mouse cell line (NIH/3T3 cells, CRL-1658). This assay measures the bioreduction of a novel tetrazolium compound to a soluble formazan product by viable cells. HepG2 cells are seeded in 96 well plates at 2×10^4 cells/well in MEM medium with 10% fetal bovine serum (FBS) 24 hours prior to use. NIH/3T3 cells are seeded in 96 well plates at 2×10^4 cells/well in DMEM medium with 10% bovine calf serum (BCS) 24 hours prior to use. Cell monolayers are rinsed in serum-free media and incubated for one hour with a Compound in serum-free media. After incubation, the media is replaced with serum supplemented media and live cells are measured using the Cell Titer 96 Aqueous […] Assay kit (Promega, Madison, Wis.). EC50 values are determined using a four parameter logistic equation: Y=Bottom+(Top−Bottom)/(1+10^((Log EC50−X)*HillSlope)). Actual results from a representative cytotoxicity assay are shown below in Table 3. Data is expressed as EC50 in μg/ml. Cytotoxicity is evaluated in a colorimetric assay using a transformed human liver cell line (HepG2, HB-8065) and an embryonic mouse cell line (NIH/3T3 cells, CRL-1658). This assay measures the bioreduction of a novel tetrazolium compound to a soluble formazan product by viable cells. HepG2 cells are seeded in 96 well plates at 3×10^4 cells/well in MEM medium with 10% fetal bovine serum (FBS) 24 hours prior to use. NIH/3T3 cells are seeded in 96 well plates at 2×10^4 cells/well in DMEM medium with 10% bovine calf serum (BCS) 24 hours prior to use. Cell monolayers are rinsed in serum-free media and incubated for one hour with test agent in serum-free media. After incubation, the media is replaced with serum supplemented media and live cells are measured using the Cell Titer 96 Aqueous […] Assay kit (Promega, Madison, Wis.). EC50 values are determined using a four parameter logistic equation: Y=Bottom+(Top−Bottom)/(1+10^((Log EC50−X)*HillSlope)).

In the next data set the test system is E. coli (25922). The data set can be described thus: MIC assay (Table 1). The format is cell-based. The note with it: Escherichia coli, isolate 25922.
A further data set deals with K. pneumoniae (13883). The data set can be described thus: MIC assay (Table 1). The format is cell-based. The note with it: Klebsiella pneumoniae, isolate 13883, read-out: MIC50 K. Pnuemnoiae. On the procedure: (§2) The compounds are screened for antimicrobial activity against a number of clinically relevant pathogens. Minimum Inhibitory Concentrations (MIC) of each of the compounds are determined using standard procedures for clinical ocular isolates of Ciprofloxacin Susceptible (CS) S. aureus (CSSA), Ciprofloxacin Resistant (CR) S. aureus (CRSA), CS S. epidermidis (CSSE), CR S. epidermidis (CRSE), St. pneumoniae (SP), St. viridans group (SV), Moraxella Species (MS) (including Moraxella catarrhalis), H. influenzae (HI), P. aeruginosa (PA), Serratia marcescens (SM), S. aureus fluoroquinolone-susceptible, S. aureus fluoroquinolone-resistant, S. epidermidis (Coagulase-negative Staphylococcus) fluoroquinolone-susceptible, S. epidermidis (Coagulase-negative Staphylococcus) fluoroquinolone-resistant, and Serratia marcescens.
(§3) On the day of testing, a 640 μg/m (1280 μg/m for Serratia marcescens and Pseudomonas aeruginosa) concentration is prepared from a 1% stock solution in 0.01% acetic acid, 0.2% BSA in polypropylene tubes.
(§4) Ten μl of diluted 10× test agents is added to each well of one row of the 96 well polypropylene plates from column 2 to column 12 (column 1 is a control for bacteria alone, with no peptide). […] The same peptide is in each of the 8 rows. One plate contains dilutions of one test agent and 8 bacterial isolates.
(§5) Ninety μl of the bacterial suspensions is dispensed in each well from column 1 to column 12. Each bacterial isolate is placed in one row of a 96 well polypropylene plate containing the test agents. The plates are placed on shaker at 15 minutes at room temperature, and then incubated at 37° C. overnight. MICs are determined visually as the lowest concentration of drug that inhibits visible bacterial growth.
(§6) Data is expressed as MIC50 in μg/ml. The bacterial isolates were as follows: E. coli (25922); S. aureus (27660); E. faecalis (29212); P. aeruginosa (10145); and K. pneumoniae (13883).

In a further data set the test system is E. faecalis (29212). The data set can be described thus: MIC assay (Table 1). The note with it: Enterococcus faecalis, isolate 29212. The format is cell-based. On the procedure:
as §2, §3, §4, §5, §6

In data set [1] the test system is Staphylococcus aureus. Nature of the data set: Antimicrobial activity (MIC) of aryl compounds (Table 2). The format is cell-based. The note with it: for MIC: Staphylococcus aureus, Table 2, read-out: MIC S. aureus. From the text:
(§7) A new series of aryl compounds was designed to evaluate the effect of charge and aromatic group hydrophobicity on the biological activity while still maintaining an amphiphilic topology. Four and six cationic charges were investigated, and three different central rings were used to tune the overall hydrophobicity: benzene, naphthalene, and phenylbenzene. The hydrophobicities of the aryl compounds were quantified using reversed-phase HPLC retention times (Rt). The antimicrobial activities (expressed as minimum inhibitory concentration (MIC)) of these compounds were tested against four pathogens, including both Gram-negative and Gram-positive bacteria, and their hemolysis (evaluated in terms of HC50, the lowest concentration that causes 50% hemolysis of red blood cells (RBCs)) was tested against human RBCs.

Data set [2] relates to Escherichia coli. The description is as above. In kind it is cell-based. As to conditions: for MIC: Escherichia coli, Table 2.
Source text: as §7

The next data set has as its system S. aureus (27660). Nature of the data set: MIC assay (Table 1). The note with it: Staphylococcus aureus, isolate 27660. In kind it is cell-based.
The subject of the next data set is NIH/3T3 cells. Nature of the data set: Cytotoxicity colorimetric assay. The format is cell-based. As to conditions: Mus musculus, NIH3T3, 1 h, one hour incubation in serum-free media. The procedure: as §1, with “Actual results from a representative cytotoxicity assay are shown below in Table 3.” left out
A further data set has as its system P. aeruginosa (10145). Nature of the data set: MIC assay (Table 1). The format is cell-based. The note with it: Pseudomonas aeruginosa, isolate 10145.
The next data set has as its system human RBCs. In kind it is cell-based. The note with it: 1 h, pH 7.4.
Source text: as §7
Cytotoxicity of the compounds is also evaluated in a hemolysis assay using human erythrocytes. Pooled whole human blood is centrifuged to separate the red blood cells (RBC). The isolated RBCs are rinsed and diluted in Tris-buffered saline (TBS buffer, pH 7.4) to obtain a 0.22% RBC stock suspension. 5 μL of a Compound stock solution is added to 45 μL of RBC suspension and incubated with shaking for 1 hour at 37° C. At the conclusion of the incubation time, samples are centrifuged and 30 μL of the supernatant is added to 100 μL of water. OD414 measurements are read for hemoglobin concentration. The bee venom peptide melittin is used as a positive control. EC50 values are determined as described above.
Cytotoxicity is also evaluated in a hemolysis assay using isolated human erythrocytes. Pooled whole human blood is centrifuged to separate the red blood cells (RBC). The isolated RBCs are rinsed and diluted in Tris-buffered saline (TBS buffer, pH 7.4) to obtain a 0.22% RBC stock suspension. […] OD405 measurements are read for hemoglobin concentration. […] EC50 values are determined using a four parameter logistic equation: Y=Bottom+(Top−Bottom)/(1+10^((Log EC50−X)*HillSlope)).

The next data set has as its system RAW 264.7 cells. Nature of the data set: Cytokine production in RAW 264.7 cells (ELISA). In kind it is cell-based, murine. As to conditions: 5.0 μg/mL preincubation 1 hour, LPS 100 ng/mL 18 hours; FIG. 1B. A general note: In an ELISA, binding on a coated surface is turned into a signal by an enzyme label.
Data set [3] deals with Staphylococcus aureus. As to conditions: Data from Thaker, et al., J. Med. Chem., 2011, 54, 2241; cited from earlier work.
For data set [4], the system named is Escherichia coli. The note with it: Data from Thaker, et al., J. Med. Chem., 2011, 54, 2241; cited from earlier work.

For `NCCCOc1cc(OCCCN)cc(-c2cccc(-c3cc(OCCCN)cc(OCCCN)c3)c2)c1` [Compound 111], the values for the EC50 in the data set with HepG2 and in the data set with NIH/3T3 cells were > 1020 µg/mL and 814 µg/mL (≈ 1560 µM), respectively. For the same molecule, the MIC50 – broadly, an inhibitory concentration at the 50% level, which refers to growth in some studies and to a panel of isolates in others – is 50 µg/mL (≈ 95.7 µM) with E. coli (25922); > 50 µg/mL in the data set on K. pneumoniae (13883); 50 µg/mL (≈ 95.7 µM) against E. faecalis (29212); 12.5 µg/mL (≈ 23.9 µM) against S. aureus (27660); > 50 µg/mL in the data set with P. aeruginosa (10145). Further, the “Selectivity (HC50/MIC) S. aureus” value in the data set with Staphylococcus aureus [1] was >80. In addition, the MIC (as a rule, the smallest concentration in the dilution series that meets the test's criterion for growth inhibition) with Staphylococcus aureus [1] worked out at 12.5 µg/mL (≈ 23.9 µM); against Escherichia coli [2] it was 50 µg/mL (≈ 95.7 µM). Further, in the data set on Escherichia coli [2], the “Selectivity (HC50/MIC) E. coli” value is recorded as >20.
As for `NCCCOc1cc(-c2cc(-c3ccccc3)cc(-c3cc(OCCCN)c(OCCCN)c(OCCCN)c3)c2)cc(OCCCN)c1OCCCN` [Compound 115], the HC50 (in general, the concentration that lyses half of the red blood cells) in the data set on human RBCs was >1000 µg/mL. The “LPS-induced TNF production” value in the data set on RAW 264.7 cells is recorded as “did not cause any additional increase in TNF production”. In addition, the MIC50 against E. coli (25922) is 6.25 µg/mL (≈ 8.39 µM); in the data set on K. pneumoniae (13883), 12.5 µg/mL (≈ 16.8 µM); against E. faecalis (29212), > 50 µg/mL; in the data set on S. aureus (27660), 12.5 µg/mL (≈ 16.8 µM); in the data set on P. aeruginosa (10145), 25 µg/mL (≈ 33.6 µM). For the same molecule, the “Selectivity (HC50/MIC) S. aureus” value with Staphylococcus aureus [1] was >160. The MIC with Staphylococcus aureus [1] and in the data set on Escherichia coli [2] was 6.25 µg/mL (≈ 8.39 µM) throughout. Moreover, the “Selectivity (HC50/MIC) E. coli” value in the data set on Escherichia coli [2] is >160. Further, a half-maximal effect with NIH/3T3 cells (EC50) was put at 110 µg/mL (≈ 147 µM).
For the molecule `NCCCOc1cc(OCCCN)cc(-c2ccc3ccc(-c4cc(OCCCN)cc(OCCCN)c4)cc3c2)c1` [Compound 119], the HC50 in the data set on human RBCs is 195 µg/mL. Also, the “LPS-induced TNF production” value in the data set with RAW 264.7 cells is “did not cause any additional increase in TNF production”. The MIC50 against E. coli (25922) is 25 µg/mL (≈ 43.6 µM); in the data set on K. pneumoniae (13883) it was 50 µg/mL (≈ 87.3 µM); in the data set on E. faecalis (29212) it was 6.25 µg/mL (≈ 10.9 µM); in the data set with S. aureus (27660), 12.5 µg/mL (≈ 21.8 µM); with P. aeruginosa (10145), 25 µg/mL (≈ 43.6 µM). Further, the “Selectivity (HC50/MIC) S. aureus” value with Staphylococcus aureus [1] was found to be 15.6. Further, the MIC in the data set with Staphylococcus aureus [1] came out at 12.5 µg/mL (≈ 21.8 µM); in the data set on Escherichia coli [2], 25 µg/mL (≈ 43.6 µM). Moreover, in the data set on Escherichia coli [2], the “Selectivity (HC50/MIC) E. coli” value was determined as 7.8.
Take `NCCCOc1cc(OCCCN)cc(-n2cc(-c3ccc4ccc(-c5cn(-c6cc(OCCCN)cc(OCCCN)c6)nn5)cc4c3)nn2)c1` [Compound 102]: the EC50 (as a rule, the concentration that produces a half-maximal response) in the data set with HepG2 was found to be 48.4 µg/mL (≈ 68.5 µM); with NIH/3T3 cells, 36.1 µg/mL (≈ 51.1 µM). Moreover, the MIC50 is > 50 µg/mL with E. coli (25922); 50 µg/mL (≈ 70.7 µM) in the data set with K. pneumoniae (13883); 25 µg/mL (≈ 35.4 µM) in the data set on E. faecalis (29212); 12.5 µg/mL (≈ 17.7 µM) with S. aureus (27660); > 50 µg/mL in the data set on P. aeruginosa (10145).
Regarding MSI-78, in the data set on Staphylococcus aureus [3], the “MIC S. aureus” value is 16 µg/mL and 8 to 16 µg/mL. Besides, the “MIC E. coli” value in the data set on Escherichia coli [4] is 16 µg/mL and 16 to 32 µg/mL.
